Each structure is given as a SMILES string.

For data set [1] the following is noted: cited from earlier work.
Data set [2] has as its system cGAS-STING pathway. On the set-up: method as in PMID 31036082. Particulars: cited from earlier work.
Data set [3] relates to cGAS-STING pathway. The data set is described as follows: cGAS-STING pathway, IFN-β and ISG readout in pancreatic cancer organoids. The format is cell-based, human. Particulars: TBK1 inhibitor added to culture medium. The method, then: Tumor tissues or cells were thoroughly lysed in RIPA buffer containing protease and phosphatase inhibitors. The lysates were then centrifuged to collect the supernatant. Proteins were separated by electrophoresis in MOPS buffer and subsequently transferred onto a PVDF membrane. After blocking, the membrane was sequentially incubated with the primary antibody, secondary antibody, and chemiluminescent substrate (ECL) for imaging.
(§1) RNA from tumor tissues or cells was extracted using the SteadyPure Universal RNA Extraction Kit (Accurate Biology) and reverse transcribed into cDNA with the Evo M-MLV Reverse Transcription Kit (Accurate Biology). Relative RNA expression levels were quantified using 2X Universal SYBR Green Fast qPCR Mix (Abclonal), and the results were recorded on the qTOWER®3 84 Real-Time PCR system.
(§2) Multiplex cytokine detection was performed using Luminex cytokine bead array technology provided by WayenBio, Shanghai. In the mouse tumor model, levels of multiple cytokines were simultaneously measured and normalized to tumor weight. For the quantification of specific cytokines, such as IL-6 and IFN-β, enzyme-linked immunosorbent assay (ELISA) kits from Abclonal were used. The assays were conducted according to the manufacturer's instructions.

For data set [4], the system named is subcutaneous pancreatic tumor. The data set is described as follows: Subcutaneous pancreatic tumor model. It is filed as in vivo, C57BL/6 mice. Particulars: co-administered with D166. How it is done:
C57BL/6 mice were obtained from Phenotek (Shanghai) and randomly assigned to groups, with a minimum of six mice per group. For the subcutaneous tumor model, approximately 5 × 10^5 tumor cells were suspended in 150 μL PBS and injected into the left flank of the mice. Tumor size was measured every four days starting from day 7 post-injection. On days 9, 12, and 15, the mice were administered three different concentrations of the drug via peritumoral injection, while the Control group received only the solvent. The mice were euthanized on day 25, and tumors were excised, weighed, and further analyzed.
as §2

For a further data set, the target named is T1, h-STING (Homo sapiens, UniProt Q86WV6, G230A/R293Q/R71H).
T1 construct: THP1-Dual Fold (10 μM); endogenous in cells; host or cells: THP1-Dual
T1 sequence (Q86WV6 whole entry R71H/G230A/R293Q): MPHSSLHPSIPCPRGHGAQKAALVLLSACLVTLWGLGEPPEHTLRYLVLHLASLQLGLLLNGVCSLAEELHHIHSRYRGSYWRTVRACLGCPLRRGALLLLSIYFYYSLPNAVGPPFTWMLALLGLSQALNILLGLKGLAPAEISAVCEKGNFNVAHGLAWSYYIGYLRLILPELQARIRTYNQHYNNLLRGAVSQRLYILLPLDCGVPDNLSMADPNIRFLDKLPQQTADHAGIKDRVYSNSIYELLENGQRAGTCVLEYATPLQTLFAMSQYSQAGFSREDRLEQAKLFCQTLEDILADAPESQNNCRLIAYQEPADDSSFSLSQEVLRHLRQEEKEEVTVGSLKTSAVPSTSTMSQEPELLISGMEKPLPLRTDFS
The data set is described as follows: THP1-Dual reporter activation fold. The format is cell-based.

A further data set deals with T2, m-STING (Mus musculus, UniProt Q3TBT3).
T2 construct: Raw-lucia Fold (50 μM); endogenous in cells; host or cells: RAW-Lucia
T2 sequence (Q3TBT3 1-378): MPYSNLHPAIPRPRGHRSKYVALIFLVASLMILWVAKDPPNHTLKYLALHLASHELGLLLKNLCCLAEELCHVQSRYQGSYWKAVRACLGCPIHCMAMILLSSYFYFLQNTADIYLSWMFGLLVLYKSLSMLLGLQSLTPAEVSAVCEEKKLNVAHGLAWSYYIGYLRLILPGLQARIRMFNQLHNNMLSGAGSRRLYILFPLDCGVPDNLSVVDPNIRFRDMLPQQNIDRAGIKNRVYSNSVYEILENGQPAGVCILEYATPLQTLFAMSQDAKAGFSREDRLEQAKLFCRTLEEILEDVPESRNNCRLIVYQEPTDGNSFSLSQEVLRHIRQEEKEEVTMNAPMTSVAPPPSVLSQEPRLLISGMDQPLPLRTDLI
The experiment in a line: Raw-lucia reporter activation fold. It is filed as cell-based.

In a further data set the test system is STING signaling. The data set is described as follows: Relative gene expression in RAW-Lucia cells (RT-qPCR). The format is cell-based, mouse. The method, then: as §1
Background: In qPCR the cycle at which signal appears reflects the starting amount.

A short description of data set [5]: Pharmacokinetic parameters, i.v. and p.o. The format is in vivo.

With `Nc1ncnc2c1ncn2[C@@H]1O[C@@H]2COP(=O)([S-])O[C@@H]3[C@H](O)[C@@H](COP([O-])(=S)O[C@H]2[C@H]1O)O[C@H]3n1cnc2c(N)ncnc21.[Na+].[Na+]` (stereo partly drawn) [ADU-S100], in data set [1], the “reason for termination in phase I clinical trials” value is “poor drug stability and systemic toxicity”.

For the molecule `Cc1ccc2c(=O)c3cccc(CC(=O)O)c3oc2c1C` [DMXAA, 5,6-Dimethylxanthenone-4-acetic acid], the “species in which the cGAS-STING pathway is activated” value with cGAS-STING pathway [2] is “only in mice”.

Consider `Nc1nc2c(ncn2[C@@H]2O[C@@H]3CO[P@@](=O)(S)O[C@H]4[C@H](F)[C@H](n5cnc6c(N)ncnc65)O[C@@H]4CO[P@@](=O)(S)O[C@@H]2[C@@H]3F)c(=O)[nH]1` [MK-1454], for which the “efficacy in clinical study” value in data set [1] (single-agent treatment group) was “limited efficacy as a monotherapy”.

Regarding `O=C(NCCCNc1nc(Nc2cccc(CN3CCOCC3)c2)ncc1C1CC1)C1CCC1` [MRT67037, reference compound], the “effect on D166-induced ISG activation in organoids” value in the data set with cGAS-STING pathway [3] is reported as “rescued the D166-induced ISG activation”. For the same molecule, the “effect on the tumor-killing effect of D166” value in data set [4] is recorded as “counteracted the tumor-killing effect of D166”.

In the case of `COc1cc2cc(C(=O)CCC(=O)O)sc2cc1OC` [MSA-2, reference compound], the “THP1-Dual Fold (10 μM)” value at h-STING was found to be 43.09 Fold. For the same molecule, at m-STING, the “Raw-lucia Fold (50 μM)” value was 22.59 Fold. In addition, in the data set on STING signaling, the “Relative expression (Cxcl10/actin)” value was found to be 179.40 ± 2.58 and the “Relative expression (Ifnb/actin)” value is given as 125.70 ± 3.06. In data set [5] (i.v., average of three runs), this molecule displayed an AUCInf of 1.372 µg·h/mL, a CL of 0.738 L/h/kg, an MRTInf of 15.6 min and a T1/2 of 39.6 min. The molecule further showed a Vz in data set [5] (i.v., average of three runs) of 0.70 L/kg. For the same molecule, in data set [5] (p.o., average of three runs), the AUCInf is 2.852 µg·h/mL, the MRTInf was 53.4 min and the T1/2 turned out to be 65.4 min. For the same molecule, the F in data set [5] (p.o., oral bioavailability) came to 69.3%.

Values taken from publication PMC12160547, “Identification of a Novel Small Molecule STING Agonist Reshaping the Immunomicroenvironment of Pancreatic Ductal Adenocarcinoma” (International Journal of Biological Sciences, 2025).
